In paper PMC10882719 (Frontiers in Neuroscience, 2024):
Where two headings read alike, the source gives them in different places.

Tests used:
Assay type in all cases: cell-based
168 GPCRs [1] = target: T1, 168 GPCRs (Homo sapiens, UniProt Q8TDV5)
T1 construct: host or cells: PathHunter cell lines
T1 sequence (Q8TDV5 1-335): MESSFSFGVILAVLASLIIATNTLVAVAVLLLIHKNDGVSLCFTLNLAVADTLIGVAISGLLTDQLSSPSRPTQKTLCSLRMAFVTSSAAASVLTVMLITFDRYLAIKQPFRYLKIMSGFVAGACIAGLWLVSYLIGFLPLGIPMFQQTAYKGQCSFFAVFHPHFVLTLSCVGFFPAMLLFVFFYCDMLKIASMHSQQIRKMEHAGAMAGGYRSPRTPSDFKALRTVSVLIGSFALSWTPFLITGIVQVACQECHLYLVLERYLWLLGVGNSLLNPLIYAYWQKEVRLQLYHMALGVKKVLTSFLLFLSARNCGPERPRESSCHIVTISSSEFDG

168 GPCRs [2] = target: T2, 168 GPCRs (Homo sapiens, UniProt Q96P65)
T2 construct: host or cells: PathHunter cell lines
T2 sequence (Q96P65 1-431): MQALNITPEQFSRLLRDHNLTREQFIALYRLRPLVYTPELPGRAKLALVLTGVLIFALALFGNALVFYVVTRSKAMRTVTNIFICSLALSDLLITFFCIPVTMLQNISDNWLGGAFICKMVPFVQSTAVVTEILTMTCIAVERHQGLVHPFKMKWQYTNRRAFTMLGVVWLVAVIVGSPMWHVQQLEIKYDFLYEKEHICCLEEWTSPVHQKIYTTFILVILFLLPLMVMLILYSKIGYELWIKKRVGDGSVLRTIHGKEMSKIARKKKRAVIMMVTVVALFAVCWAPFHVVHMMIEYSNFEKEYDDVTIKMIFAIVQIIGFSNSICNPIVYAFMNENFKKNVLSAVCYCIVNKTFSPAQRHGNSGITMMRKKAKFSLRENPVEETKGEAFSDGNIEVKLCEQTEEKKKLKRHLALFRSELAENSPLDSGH

168 GPCRs [3] = target: T3, 168 GPCRs (Homo sapiens, UniProt P51679)
T3 construct: host or cells: PathHunter cell lines
T3 sequence (P51679 1-360): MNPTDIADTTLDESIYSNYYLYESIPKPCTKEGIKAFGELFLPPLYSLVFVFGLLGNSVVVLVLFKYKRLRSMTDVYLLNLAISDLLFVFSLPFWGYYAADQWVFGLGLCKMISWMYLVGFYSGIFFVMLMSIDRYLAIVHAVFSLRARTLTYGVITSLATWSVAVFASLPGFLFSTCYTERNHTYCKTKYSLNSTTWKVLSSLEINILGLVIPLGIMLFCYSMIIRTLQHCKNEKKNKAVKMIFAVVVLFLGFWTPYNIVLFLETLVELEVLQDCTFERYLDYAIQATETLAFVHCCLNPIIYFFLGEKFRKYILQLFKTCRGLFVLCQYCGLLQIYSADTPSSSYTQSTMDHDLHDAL

168 GPCRs [4] = target: T4, 168 GPCRs (Homo sapiens, UniProt P23945); conditions: FSHR
T4 construct: host or cells: PathHunter cell lines
T4 sequence (P23945 18-695): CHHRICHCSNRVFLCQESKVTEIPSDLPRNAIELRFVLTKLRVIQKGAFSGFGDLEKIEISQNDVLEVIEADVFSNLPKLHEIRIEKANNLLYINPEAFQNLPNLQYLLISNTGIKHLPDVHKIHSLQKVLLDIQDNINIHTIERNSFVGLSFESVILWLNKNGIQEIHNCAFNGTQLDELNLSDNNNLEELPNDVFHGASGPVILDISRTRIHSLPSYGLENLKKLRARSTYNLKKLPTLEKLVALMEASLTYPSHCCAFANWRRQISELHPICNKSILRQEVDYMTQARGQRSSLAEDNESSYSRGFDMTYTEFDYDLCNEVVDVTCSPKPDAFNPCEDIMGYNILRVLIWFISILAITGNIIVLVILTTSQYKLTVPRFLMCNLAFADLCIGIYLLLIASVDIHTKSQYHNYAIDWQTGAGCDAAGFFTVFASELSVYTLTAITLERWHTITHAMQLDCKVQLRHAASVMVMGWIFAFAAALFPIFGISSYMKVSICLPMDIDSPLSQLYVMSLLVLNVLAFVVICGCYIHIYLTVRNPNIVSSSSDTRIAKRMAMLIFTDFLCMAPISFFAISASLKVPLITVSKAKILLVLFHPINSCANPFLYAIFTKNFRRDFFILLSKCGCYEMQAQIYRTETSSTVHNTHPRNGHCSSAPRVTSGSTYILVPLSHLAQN

Row | Structure (SMILES) | % Agonist Activity (168 GPCRs [1]; GPR119, 1 uM) | % Antagonist Activity (168 GPCRs [1]; GPR119, 1 uM) | % Agonist Activity (168 GPCRs [1]; GPR119, 10 uM) | % Antagonist Activity (168 GPCRs [1]; GPR119, 10 uM) | % Agonist Activity (168 GPCRs [2]; GPR103, 1 uM) | % Antagonist Activity (168 GPCRs [2]; GPR103, 1 uM) | % Agonist Activity (168 GPCRs [2]; GPR103, 10 uM) | % Antagonist Activity (168 GPCRs [2]; GPR103, 10 uM) | % Agonist Activity (168 GPCRs [3]; CCR4, 1 uM) | % Antagonist Activity (168 GPCRs [3]; CCR4, 1 uM) | % Agonist Activity (168 GPCRs [3]; CCR4, 10 uM) | % Antagonist Activity (168 GPCRs [3]; CCR4, 10 uM) | % Agonist Activity (168 GPCRs [4]; 1 uM) | % Antagonist Activity (168 GPCRs [4]; 1 uM) | % Agonist Activity (168 GPCRs [4]; 10 uM) | % Antagonist Activity (168 GPCRs [4]; 10 uM)
1 | CNC(C)Cc1ccc2c(c1)OCO2 (centres unmarked) [MDMA, 3,4-Methylenedioxy methamphetamine, reference compound] | 17.1% | 2.7% | 10.2% | 3.8% | -4.2% | -15.2% | -6.5% | -17.1% | 0.1% | 7.7% | 0.1% | 13% | 0.7% | 3.2% | -0.1% | -5.8%
2 | CNC(C)C(=O)c1ccc2c(c1)OCO2 (centres unmarked) [methylone] | -5.8% | 17.1% | -2.2% | -8.8% | 0.8% | 4.1% | 3.1% | 7% | -0.5% | 10% | -1.4% | 9.5% | -1% | -11.8% | -2.2% | -8.4%
